{"source": "the NIST ThermoML archive (doi:10.1021/je300784x)", "details": "Liquid, Twin ebulliometer", "note": "± gives the expanded uncertainty stated by the source.", "data": [{"molecule": "CCOc1ccccc1O", "note": "[2-ethoxyphenol]", "values": [{"measurement": "vapor or sublimation pressure", "setting": "380.22 K", "result": "2.827 ± 0.015", "unit": "kPa"}, {"measurement": "vapor or sublimation pressure", "setting": "383.28 K", "result": "3.25 ± 0.015", "unit": "kPa"}, {"measurement": "vapor or sublimation pressure", "setting": "386.29 K", "result": "3.72 ± 0.015", "unit": "kPa"}, {"measurement": "vapor or sublimation pressure", "setting": "391.94 K", "result": "4.757 ± 0.015", "unit": "kPa"}, {"measurement": "vapor or sublimation pressure", "setting": "397.4 K", "result": "5.986 ± 0.015", "unit": "kPa"}, {"measurement": "vapor or sublimation pressure", "setting": "402.92 K", "result": "7.506 ± 0.016", "unit": "kPa"}, {"measurement": "vapor or sublimation pressure", "setting": "408.63 K", "result": "9.39 ± 0.016", "unit": "kPa"}, {"measurement": "vapor or sublimation pressure", "setting": "414.5 K", "result": "11.73 ± 0.016", "unit": "kPa"}, {"measurement": "vapor or sublimation pressure", "setting": "418.79 K", "result": "13.71 ± 0.016", "unit": "kPa"}, {"measurement": "vapor or sublimation pressure", "setting": "423.31 K", "result": "16.11 ± 0.016", "unit": "kPa"}, {"measurement": "vapor or sublimation pressure", "setting": "428.48 K", "result": "19.24 ± 0.017", "unit": "kPa"}, {"measurement": "vapor or sublimation pressure", "setting": "436.26 K", "result": "24.89 ± 0.018", "unit": "kPa"}, {"measurement": "vapor or sublimation pressure", "setting": "445.61 K", "result": "33.38 ± 0.019", "unit": "kPa"}, {"measurement": "vapor or sublimation pressure", "setting": "457.01 K", "result": "46.82 ± 0.023", "unit": "kPa"}, {"measurement": "vapor or sublimation pressure", "setting": "486.03 K", "result": "100.76 ± 0.025", "unit": "kPa"}]}]}
